This is an account of results in PMC12136037, “Type II kinase inhibitors that target Parkinson’s disease–associated LRRK2” (Science Advances, 2025).

Common to all, as to test: DSF 100 kinase selectivity screen;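 further: compound tested at 20 µM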
Assay type in all cases: binding

Test [1] concerns the target T1, ~100 representative kinases (Homo sapiens, UniProt P22830).
T1 construct: Recombinant protein kinase domains with a concentration of 2 μM
T1 sequence (P22830 55-423): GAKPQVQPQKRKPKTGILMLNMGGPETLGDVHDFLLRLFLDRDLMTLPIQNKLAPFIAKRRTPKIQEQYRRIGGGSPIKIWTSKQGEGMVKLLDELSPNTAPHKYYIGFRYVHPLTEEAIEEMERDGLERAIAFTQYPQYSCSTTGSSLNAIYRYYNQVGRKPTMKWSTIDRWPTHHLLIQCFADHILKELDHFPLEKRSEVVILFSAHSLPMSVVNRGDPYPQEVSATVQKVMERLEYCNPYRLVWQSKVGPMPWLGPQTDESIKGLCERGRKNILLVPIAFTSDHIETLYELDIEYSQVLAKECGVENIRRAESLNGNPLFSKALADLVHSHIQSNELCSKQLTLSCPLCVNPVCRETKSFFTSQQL
The conditions noted are these: protein FECH; average of three replicates. An outline of the steps:
(§1)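 Each kinase domain, at 2 μM, is mixed with 20 μM test compound and SYPRO Orange in Hepes (20 mM, pH 7.5) with 500 mM NaCl. Temperature is then raised at 3°C/min and fluorescence-monitored unfolding yields the melting temperature change, ΔTm in degrees Celsius.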

Test [2] deals with T2, ~100 representative kinases (Homo sapiens, UniProt Q96L34).
T2 construct: Recombinant protein kinase domains with a concentration of 2 μM
T2 sequence (Q96L34 1-752): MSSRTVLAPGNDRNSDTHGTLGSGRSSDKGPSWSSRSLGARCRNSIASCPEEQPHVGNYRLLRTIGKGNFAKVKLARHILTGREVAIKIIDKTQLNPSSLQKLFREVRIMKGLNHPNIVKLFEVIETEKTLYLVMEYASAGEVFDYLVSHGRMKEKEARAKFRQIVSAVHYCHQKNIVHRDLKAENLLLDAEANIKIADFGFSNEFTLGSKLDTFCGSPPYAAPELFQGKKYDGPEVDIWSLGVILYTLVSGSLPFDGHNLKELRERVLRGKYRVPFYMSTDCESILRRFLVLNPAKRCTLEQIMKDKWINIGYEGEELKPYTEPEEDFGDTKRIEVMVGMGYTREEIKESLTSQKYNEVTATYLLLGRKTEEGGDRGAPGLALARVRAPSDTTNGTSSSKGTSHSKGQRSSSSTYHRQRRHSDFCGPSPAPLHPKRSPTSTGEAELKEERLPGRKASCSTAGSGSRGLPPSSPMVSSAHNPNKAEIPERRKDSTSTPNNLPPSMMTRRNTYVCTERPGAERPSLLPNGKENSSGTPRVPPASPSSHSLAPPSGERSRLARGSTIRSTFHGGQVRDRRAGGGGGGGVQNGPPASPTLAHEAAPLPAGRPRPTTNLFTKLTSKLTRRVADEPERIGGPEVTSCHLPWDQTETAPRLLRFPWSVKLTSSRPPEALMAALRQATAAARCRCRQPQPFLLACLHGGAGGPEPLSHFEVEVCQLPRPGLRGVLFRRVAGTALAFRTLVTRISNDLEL
The following applies: protein MARK4; average of three replicates. The method in brief: as §1

Test [3] addresses T3, ~100 representative kinases (Homo sapiens, UniProt P49841).
T3 construct: Recombinant protein kinase domains with a concentration of 2 μM
The conditions noted are these: protein GSK3B; average of three replicates. An outline of the steps:
as §1

The target in test [4] is T4, ~100 representative kinases (Homo sapiens, UniProt P28482).
T4 construct: Recombinant protein kinase domains with a concentration of 2 μM
T4 sequence (P28482 whole entry, the tested form may be a part): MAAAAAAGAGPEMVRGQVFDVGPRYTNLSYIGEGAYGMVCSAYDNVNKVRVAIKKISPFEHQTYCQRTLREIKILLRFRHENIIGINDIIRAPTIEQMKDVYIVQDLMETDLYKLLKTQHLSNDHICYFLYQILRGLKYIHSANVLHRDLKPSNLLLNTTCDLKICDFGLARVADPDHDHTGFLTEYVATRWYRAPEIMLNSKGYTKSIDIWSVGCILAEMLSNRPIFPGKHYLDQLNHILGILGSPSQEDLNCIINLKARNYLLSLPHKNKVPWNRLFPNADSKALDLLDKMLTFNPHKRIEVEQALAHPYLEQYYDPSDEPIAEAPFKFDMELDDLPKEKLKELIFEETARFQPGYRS
The following applies: protein MAPK1; average of three replicates. An outline of the steps:
as §1

The target in test [5] is T5, ~100 representative kinases (Homo sapiens, UniProt Q14680).
T5 construct: Recombinant protein kinase domains with a concentration of 2 μM
T5 sequence (Q14680 whole entry, the tested form may be a part): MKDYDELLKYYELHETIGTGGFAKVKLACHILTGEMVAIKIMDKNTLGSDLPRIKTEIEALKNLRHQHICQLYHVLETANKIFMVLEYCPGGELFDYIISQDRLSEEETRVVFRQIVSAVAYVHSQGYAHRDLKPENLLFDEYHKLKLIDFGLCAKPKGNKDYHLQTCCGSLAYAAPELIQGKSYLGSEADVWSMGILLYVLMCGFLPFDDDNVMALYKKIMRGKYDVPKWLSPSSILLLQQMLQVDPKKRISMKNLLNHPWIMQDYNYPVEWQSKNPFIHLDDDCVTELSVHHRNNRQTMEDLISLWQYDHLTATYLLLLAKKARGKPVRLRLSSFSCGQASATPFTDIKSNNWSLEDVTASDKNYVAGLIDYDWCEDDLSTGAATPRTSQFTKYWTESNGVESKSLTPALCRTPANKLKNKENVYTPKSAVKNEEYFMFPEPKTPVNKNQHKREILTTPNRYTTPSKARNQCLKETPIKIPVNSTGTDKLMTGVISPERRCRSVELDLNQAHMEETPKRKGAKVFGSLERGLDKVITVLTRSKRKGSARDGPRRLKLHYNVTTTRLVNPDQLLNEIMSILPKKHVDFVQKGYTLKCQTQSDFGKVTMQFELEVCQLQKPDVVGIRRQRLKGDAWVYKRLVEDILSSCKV
The following applies: protein MELK; average of three replicates. The method in brief: as §1

The target of test [6] is T6, ~100 representative kinases (Homo sapiens, UniProt P54764).
T6 construct: Recombinant protein kinase domains with a concentration of 2 μM
T6 sequence (P54764 20-986): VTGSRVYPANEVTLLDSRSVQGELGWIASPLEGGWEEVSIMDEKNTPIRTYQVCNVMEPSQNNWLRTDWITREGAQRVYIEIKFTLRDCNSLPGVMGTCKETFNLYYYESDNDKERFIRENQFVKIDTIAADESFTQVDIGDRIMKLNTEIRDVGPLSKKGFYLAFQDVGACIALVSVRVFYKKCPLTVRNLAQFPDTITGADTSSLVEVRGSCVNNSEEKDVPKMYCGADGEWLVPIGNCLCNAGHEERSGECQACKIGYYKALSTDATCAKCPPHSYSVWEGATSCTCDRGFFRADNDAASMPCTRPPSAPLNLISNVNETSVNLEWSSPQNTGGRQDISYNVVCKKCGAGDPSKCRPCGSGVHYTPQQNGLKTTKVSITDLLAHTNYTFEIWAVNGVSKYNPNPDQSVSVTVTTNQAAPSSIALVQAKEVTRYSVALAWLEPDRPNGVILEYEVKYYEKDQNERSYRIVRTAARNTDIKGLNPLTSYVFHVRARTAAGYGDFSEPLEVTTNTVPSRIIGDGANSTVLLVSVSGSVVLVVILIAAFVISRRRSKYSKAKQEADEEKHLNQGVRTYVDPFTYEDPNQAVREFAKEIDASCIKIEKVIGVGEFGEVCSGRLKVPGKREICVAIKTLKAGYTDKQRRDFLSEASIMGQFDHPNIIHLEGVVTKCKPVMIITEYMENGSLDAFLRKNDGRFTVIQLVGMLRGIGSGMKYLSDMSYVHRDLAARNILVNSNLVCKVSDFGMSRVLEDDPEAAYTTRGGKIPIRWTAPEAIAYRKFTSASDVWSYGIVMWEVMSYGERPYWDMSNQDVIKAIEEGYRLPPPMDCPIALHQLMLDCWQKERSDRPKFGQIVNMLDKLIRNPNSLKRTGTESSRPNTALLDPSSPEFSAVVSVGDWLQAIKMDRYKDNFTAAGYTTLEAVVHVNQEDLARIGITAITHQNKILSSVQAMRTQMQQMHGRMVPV
The following applies: Protein EPHA4; average of three replicates. An outline of the steps:
as §1

Test [7] concerns the target T7, ~100 representative kinases (Homo sapiens, UniProt Q9H4A3).
T7 construct: Recombinant protein kinase domains with a concentration of 2 μM
The following applies: Protein WNK1; DSF; average of three replicates. The method in brief:
as §1

Test [8] concerns the target T8, ~100 representative kinases (Homo sapiens, UniProt P16083).
T8 construct: Recombinant protein kinase domains with a concentration of 2 μM
T8 sequence (P16083 1-231): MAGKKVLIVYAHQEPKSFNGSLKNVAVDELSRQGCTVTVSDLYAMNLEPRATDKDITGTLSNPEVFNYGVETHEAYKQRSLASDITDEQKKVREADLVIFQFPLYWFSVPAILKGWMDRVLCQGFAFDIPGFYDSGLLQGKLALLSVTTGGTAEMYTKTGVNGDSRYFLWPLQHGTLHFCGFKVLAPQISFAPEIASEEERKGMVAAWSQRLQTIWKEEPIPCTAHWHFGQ
The following applies: protein NQO2; average of three replicates. The method in brief:
as §1

The target in test [9] is T9, ~100 representative kinases (Homo sapiens, UniProt P45983).
T9 construct: Recombinant protein kinase domains with a concentration of 2 μM
T9 sequence (P45983 whole entry, the tested form may be a part): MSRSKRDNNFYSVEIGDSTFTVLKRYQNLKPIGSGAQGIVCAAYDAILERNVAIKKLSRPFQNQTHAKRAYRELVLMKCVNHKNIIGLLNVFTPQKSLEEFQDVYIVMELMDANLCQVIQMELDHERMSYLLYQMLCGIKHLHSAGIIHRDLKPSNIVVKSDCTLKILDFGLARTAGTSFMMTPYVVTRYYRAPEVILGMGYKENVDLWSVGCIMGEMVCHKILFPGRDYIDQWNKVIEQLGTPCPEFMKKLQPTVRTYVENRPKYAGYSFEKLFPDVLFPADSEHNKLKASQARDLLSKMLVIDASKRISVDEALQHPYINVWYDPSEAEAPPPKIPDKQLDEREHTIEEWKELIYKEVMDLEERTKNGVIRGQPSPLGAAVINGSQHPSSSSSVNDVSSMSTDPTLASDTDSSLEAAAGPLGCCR
The conditions noted are these: protein MAPK8; average of three replicates. The method in brief: as §1

In test [10] the target is T10, ~100 representative kinases (Homo sapiens, UniProt Q13557).
T10 construct: Recombinant protein kinase domains with a concentration of 2 μM
T10 sequence (Q13557 whole entry, the tested form may be a part): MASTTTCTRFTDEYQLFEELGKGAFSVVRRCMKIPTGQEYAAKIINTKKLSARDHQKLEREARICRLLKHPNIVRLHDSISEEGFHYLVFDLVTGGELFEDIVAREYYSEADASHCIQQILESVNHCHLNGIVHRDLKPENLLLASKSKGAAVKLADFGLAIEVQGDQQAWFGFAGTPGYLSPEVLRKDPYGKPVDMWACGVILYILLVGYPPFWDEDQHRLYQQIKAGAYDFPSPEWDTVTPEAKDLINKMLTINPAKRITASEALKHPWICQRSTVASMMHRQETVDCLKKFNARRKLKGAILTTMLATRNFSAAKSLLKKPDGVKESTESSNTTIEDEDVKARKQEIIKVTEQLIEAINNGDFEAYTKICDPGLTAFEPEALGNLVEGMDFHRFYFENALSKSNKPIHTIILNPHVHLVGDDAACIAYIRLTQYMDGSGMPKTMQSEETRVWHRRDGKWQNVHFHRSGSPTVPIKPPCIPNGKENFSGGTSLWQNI
The following applies: Protein CAMK2D; average of three replicates. The method in brief:
as §1

The target in test [11] is T11, ~100 representative kinases (Homo sapiens, UniProt Q00536).
T11 construct: Recombinant protein kinase domains with a concentration of 2 μM
T11 sequence (Q00536 whole entry, the tested form may be a part): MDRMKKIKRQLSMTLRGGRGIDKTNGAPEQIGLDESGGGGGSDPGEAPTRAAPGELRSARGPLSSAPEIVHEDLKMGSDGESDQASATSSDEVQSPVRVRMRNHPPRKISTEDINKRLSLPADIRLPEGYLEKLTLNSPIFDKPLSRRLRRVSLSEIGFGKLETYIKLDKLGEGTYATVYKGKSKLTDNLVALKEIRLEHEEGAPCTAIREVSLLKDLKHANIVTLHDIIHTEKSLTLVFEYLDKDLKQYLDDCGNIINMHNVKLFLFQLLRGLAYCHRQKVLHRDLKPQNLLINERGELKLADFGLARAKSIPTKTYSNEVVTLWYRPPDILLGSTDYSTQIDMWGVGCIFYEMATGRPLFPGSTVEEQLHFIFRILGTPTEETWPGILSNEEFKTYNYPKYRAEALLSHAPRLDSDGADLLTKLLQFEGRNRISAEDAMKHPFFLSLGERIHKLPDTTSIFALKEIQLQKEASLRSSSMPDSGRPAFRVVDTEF
The following applies: protein PCTK1; average of three replicates. The method in brief:
as §1

SMILES strings stand for the structures.

T3 sequence (P49841 whole entry, the tested form may be a part): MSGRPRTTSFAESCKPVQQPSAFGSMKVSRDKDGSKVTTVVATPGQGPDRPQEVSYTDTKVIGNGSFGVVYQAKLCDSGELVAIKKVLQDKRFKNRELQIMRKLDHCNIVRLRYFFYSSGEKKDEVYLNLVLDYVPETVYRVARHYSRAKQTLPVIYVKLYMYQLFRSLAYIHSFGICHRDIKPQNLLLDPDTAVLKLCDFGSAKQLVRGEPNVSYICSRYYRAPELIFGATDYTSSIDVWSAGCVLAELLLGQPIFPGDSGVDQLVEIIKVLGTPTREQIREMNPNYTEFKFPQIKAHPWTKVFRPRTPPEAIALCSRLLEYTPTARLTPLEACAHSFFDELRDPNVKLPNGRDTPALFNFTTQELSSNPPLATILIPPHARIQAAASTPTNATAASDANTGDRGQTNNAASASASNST

`O=C(Nc1ccc(F)cc1)C1(C(=O)Nc2cccc(-c3c[nH]c4ncnc(N5CCOCC5)c34)c2)CC1` [Compound 2]: the dTm in [1] is -0.03 K; in [2], 3.91 K; in test [3] it was 6.47 K; in test [4] it was -0.20 K; in [5] it was 14.87 K; in [6], 2.10 K. Further, the dTm in test [7] was -0.45 K; in [8], -0.56 K; in [9], 1.17 K; in test [10], 0.07 K; in test [11] it was 5.80 K.

Take `O=C(Nc1cccc(-c2c[nH]c3ncnc(N4CCOCC4)c23)c1)c1cccn(-c2ccc(F)cc2)c1=O` [Compound 4]: the dTm in test [1] is 2.76 K; in [2] it was 3.88 K; in test [3] it was 5.10 K; in test [4], -0.49 K; in [5], 12.90 K; in [6] it was 2.61 K. Besides, the dTm is listed as -0.00745 K in test [7]; -0.15 K in test [8]; 3.47 K in [9]; -0.31 K in [10]; 7.66 K in test [11].

On to `Cc1cc(NC(=O)C2(C(=O)Nc3ccc(F)cc3)CC2)cc(-c2c[nH]c3ncnc(N4CCOCC4)c23)c1` [Compound 6], for which the dTm in test [1] is reported as -0.18 K; in [2], -6.12 K; in test [3] it was 3.83 K; in test [4] it was 0.01 K; in [5], 11.24 K; in test [6] it was 2.49 K. Further, the dTm in [7] is given as 0.73 K; in test [8], -2.13 K; in [9] it was 2.19 K; in [10] it was 0.64 K; in [11], 1.12 K.

As for `O=C(Nc1cccc(-c2c[nH]c3ncnc(N4CCOCC4)c23)c1)C1(C(=O)Nc2cccc3c2CCC3)CC1` [Compound 11], the dTm was -8.36 K in test [1]; 0.00 K in [2]; 8.12 K in test [3]; 1.31 K in [4]; 10.76 K in [5]; 0.40 K in [6]. The dTm in test [7] is recorded as 0.35 K; in test [8], -2.54 K; in test [9] it was 2.36 K; in test [10], 0.60 K; in [11] it was 3.50 K.

On to `O=C(Nc1ccccc1)C1(C(=O)Nc2cccc(-c3c[nH]c4ncnc(N5CCOCC5)c34)c2)CC1` [Compound 12], for which the dTm in test [1] was 0.29 K; in test [2], 3.45 K; in test [3], 5.87 K; in [4] it was 0.22 K; in test [5] it was 12.58 K; in [6], 1.72 K. Further, the dTm in [7] is given as -0.065 K; in [8] it was 1.99 K; in [9] it was 1.81 K; in test [10] it was 0.39 K; in test [11], 5.02 K.

In the case of `O=C(Nc1ccc(Cl)cc1)C1(C(=O)Nc2cccc(-c3c[nH]c4ncnc(N5CCOCC5)c34)c2)CC1` [Compound 13], the dTm in test [1] is given as -6.06 K; in [2] it was 5.82 K; in test [3] it was 7.55 K; in [4] it was 0.06 K; in test [5], 15.01 K; in [6] it was 4.09 K. The dTm in test [7] stood at 0.30 K; in test [8], 0.45 K; in [9], 3.26 K; in [10] it was 1.12 K; in [11] it was 9.13 K.

Turning to `Cc1ccc(NC(=O)C2(C(=O)Nc3cccc(-c4c[nH]c5ncnc(N6CCOCC6)c45)c3)CC2)cc1` [Compound 14], the dTm is 0.67 K in test [1]; 3.97 K in test [2]; 4.34 K in [3]; -0.09 K in [4]; 11.82 K in [5]; 2.64 K in test [6]. The dTm was 0.16 K in [7]; 0.0157 K in [8]; 0.90 K in [9]; 0.26 K in test [10]; 6.61 K in test [11].

In the case of `CCc1ccc(NC(=O)C2(C(=O)Nc3cccc(-c4c[nH]c5ncnc(N6CCOCC6)c45)c3)CC2)cc1` [Compound 15], the dTm in test [1] is listed as -8.07 K; in test [2], 4.84 K; in test [3] it was 5.12 K; in [4], -0.47 K; in test [5], 6.77 K; in test [6], 2.16 K. Besides, the dTm is 0.33 K in test [7]; 0.0657 K in test [8]; 1.56 K in test [9]; 0.37 K in [10]; 9.05 K in test [11].

As to `COc1ccc(NC(=O)C2(C(=O)Nc3cccc(-c4c[nH]c5ncnc(N6CCOCC6)c45)c3)CC2)cc1` [Compound 16], the dTm in test [1] is 0.0636 K; in [2], 2.27 K; in [3], 2.09 K; in test [4], -0.34 K; in test [5], 8.41 K; in test [6] it was -0.05 K. The dTm was -0.0251 K in test [7]; -0.51 K in [8]; 0.26 K in [9]; -0.55 K in test [10]; 5.58 K in test [11].

With `O=C(Nc1cccc(-c2c[nH]c3ncnc(N4CCOCC4)c23)c1)C1(C(=O)Nc2ccc(F)c(F)c2)CC1` [Compound 17], the dTm in test [1] is given as 1.70 K; in test [2], 3.95 K; in test [3] it was 7.13 K; in test [4], -0.20 K; in [5], 14.46 K; in [6], 1.24 K. For the same compound, the dTm in [7] was 0.57 K; in test [8] it was -0.41 K; in test [9], 2.52 K; in [10], 0.36 K; in test [11] it was 5.61 K.

With `O=C(Nc1cccc(-c2c[nH]c3ncnc(N4CCOCC4)c23)c1)C1(C(=O)Nc2ccc(F)c(Cl)c2)CC1` [Compound 18], the dTm in test [1] is given as -2.64 K; in test [2], 4.93 K; in test [3] it was 9.62 K; in test [4], 0.11 K; in [5], 13.04 K; in test [6] it was 1.94 K. In addition, the dTm is recorded as 1.16 K in test [7]; 0.34 K in test [8]; 3.23 K in test [9]; 0.66 K in test [10]; 7.39 K in test [11].
